In paper PMC5588548, “Suramin Inhibits Osteoarthritic Cartilage Degradation by Increasing Extracellular Levels of Chondroprotective Tissue Inhibitor of Metalloproteinases 3” (Molecular Pharmacology, 2017):

Assays:
TIMP-1 mRNA = TIMP-1 mRNA analysis in HTB94 cells (quantitative PCR); assay type: cell-based; details: suramin 0–250 µg/ml, 18 hours
Procedure: HTB94 chondrosarcoma cells or primary human chondrocytes (1 × 10^6 cells) were treated in triplicate with 0–250 µg/ml suramin in serum-free DMEM for 18–48 hours. Total RNA was isolated from cells using an RNeasy mini kit (Qiagen, Crawley, UK) and cDNA was synthesized (reverse transcriptase kit; Applied Biosystems, Foster City, CA). Levels of TIMP-1, TIMP-2, TIMP-3, LRP1, and RPLP0 internal reference mRNA were quantified by real-time polymerase […] chain reaction on a Corbett Rotor-Gene 6000 (Corbett Life Science, Mortlake, NSW, Australia) using TaqMan Fast Universal PCR Master Mix (Applied Biosystems) and TaqMan probes (Applied Biosystems) Hs01092512_g1 for TIMP-1, Hs00234278_m1 for TIMP-2, Hs00165949_m1 for TIMP-3, Hs00233856_m1 for LRP1, and Hs99999902_m1 for RPLP0. The ΔΔ threshold cycle values (mean ± S.D., n = 3 technical replicates) are shown relative to control untreated HTB94 cells (defined as 1).

[1] = test system: primary chondrocytes isolated from human OA cartilage; experiment: Accumulation of endogenous TIMP-3 in medium of human OA chondrocytes; assay type: cell-based; details: suramin 0–250 µg/ml, 48 hours
Procedure: Cells (HTB94 chondrosarcoma cells, primary porcine chondrocytes, or human osteoarthritic chondrocytes) were plated overnight (6 × 10^5 cells per well of a 12-well plate) in DMEM containing 10% FCS and washed three times in serum-free DMEM. […] Media were harvested, precipitated with trichloroacetic acid, and analyzed by immunoblotting using a rabbit anti–TIMP-3 polyclonal antibody (AB6000; Millipore, Hertfordshire, UK) and an alkaline phosphatase–conjugated anti-rabbit secondary antibody (Promega). TIMP-3 in the medium (mean ± S.D., n = 3) was calculated relative to the pixel volume of untreated cells (defined as 1).

TIMP-3 binding to LRP1 = target: T1, TIMP-3 binding to LRP1 (Homo sapiens, UniProt P35625); experiment: TIMP-3 binding to immobilized LRP1 (ELISA); details: TIMP-3 preincubated with suramin 200 µg/ml, 1 hour, 37°C
T1 construct: purchased BioMac, Leipzig, Germany
T1 sequence (P35625 24-211): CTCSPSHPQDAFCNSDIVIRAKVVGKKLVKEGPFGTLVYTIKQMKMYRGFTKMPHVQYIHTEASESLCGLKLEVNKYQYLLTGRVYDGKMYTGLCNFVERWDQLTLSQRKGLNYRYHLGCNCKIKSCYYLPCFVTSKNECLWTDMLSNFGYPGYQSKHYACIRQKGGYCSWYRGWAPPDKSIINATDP
Procedure: LRP1 (5 nM; BioMac, Leipzig, Germany) was coated (overnight, 4°C) onto medium-binding ELISA plates (Greiner Bio-One, Stonehouse, UK) in 20 mM HEPES, 150 mM NaCl, 5 mM CaCl2, and 0.05% Tween 20, pH 7.4. Wells were blocked with 10% bovine serum albumin (BSA) in Tris HCl, NaCl, and CaCl2 (TNC) buffer (50 mM Tris HCl, pH 7.5, 150 mM NaCl, 10 mM CaCl2, and 0.05% Brij 35). Wells were washed in TNC buffer containing 0.1% Tween 20 after this and every subsequent step. FLAG-tagged human TIMP-3 (0.4–50 nM), either alone or preincubated with suramin (200 μg/ml, 1 hour, 37°C), was applied to wells in TNC buffer containing 5% BSA (3 hours, 25°C). Binding was detected with anti-FLAG M2 primary antibody and anti-mouse horseradish peroxidase–conjugated secondary antibody in the same buffer. 3,3′,5,5′-Tetramethylbenzidine (Becton Dickinson) substrate was added, the reaction was stopped when appropriate by adding 2 N H2SO4, and absorbance at 450 nm was measured using a FLUOstar Omega microplate reader. Data (mean ± S.D., n = 3) were analyzed using Prism 7.0b software.

human TIMP-3 = target: T2, human TIMP-3 (Homo sapiens, UniProt P35625); experiment: Solid-phase binding of TIMP-3 to immobilized suramin or analogs (ELISA); details: TIMP-3 0.4–50 nM
T2 construct: made in house; host or cells: human embryonic kidney 293 cells
T2 sequence (P35625 24-211): T1 sequence (P35625 24-211)
Procedure: Glycosaminoglycan-binding ELISA plates (BD Life Sciences, Swindon, UK) were coated with suramin or its analogs (10 µg/ml in Tris-buffered saline, 18 hours, 25°C) ([Mahoney et al., 2004]) and wells were blocked with 0.2% gelatin in PBS (1 hour, 37°C). Wells were washed in PBS containing 0.1% Tween 20 after this and every subsequent step. Purified FLAG-tagged human TIMP-3 (0.4–50 nM) in blocking solution was applied to wells (3 hours, 37°C), and binding was detected with anti-FLAG M2 primary antibody and anti-mouse horseradish peroxidase–conjugated secondary antibody. 3,3′,5,5′-Tetramethylbenzidine (Becton Dickinson, Swindon, UK) substrate was added, the reaction was stopped when appropriate by adding 2 N H2SO4, and absorbance at 450 nm was measured using a FLUOstar Omega microplate reader (BMG Labtech, Aylesbury, Buckinghamshire, UK). Data (mean ± S.E., n = 3 technical repeats) were analyzed using Prism 7.0b software (GraphPad Software, La Jolla, CA) and EC50 values determined using a one-site specific binding model. Flat planar dimensions of suramin analogs were estimated using ICM-Pro software (Molsoft LLC, San Diego, CA).

human OA chondrocytes = experiment: Cell viability assay (MTS), human OA chondrocytes; assay type: cell-based; details: suramin 0–250 µg/ml, 48 hours
Procedure: HTB94 chondrosarcoma cells or human OA chondrocytes (10^3 cells per well in 96-well plates) were plated overnight in DMEM with 10% FCS. Cells were washed in serum-free cartilage medium and treated for 48–72 hours with suramin (0–250 µg/ml) or sodium nitroprusside (10 mM) as a control to induce cell death. Cell viability was then assessed using the 3-(4,5-dimethylthiazol-2-yl)-5-(3-carboxymethoxyphenyl)-2-(4-sulfophenyl)-2H-tetrazolium CellTiter Cell Proliferation Assay (Promega) according to the manufacturer’s instructions (mean ± S.D., n = 3).

LRP1 ectodomain = experiment: Shedding of LRP1 ectodomain into medium of HTB94 cells (immunoblot); assay type: cell-based; details: suramin 50–250 µg/ml, 30 hours

## Cc1ccc(C(=O)Nc2ccc(S(=O)(=O)O)c3cc(S(=O)(=O)O)cc(S(=O)(=O)O)c23)cc1NC(=O)c1cccc(NC(=O)Nc2cccc(C(=O)Nc3cc(C(=O)Nc4ccc(S(=O)(=O)O)c5cc(S(=O)(=O)O)cc(S(=O)(=O)O)c45)ccc3C)c2)c1 [suramin]
TIMP-1 mRNA
  TIMP-1 mRNA levels: no effect
[1]
  endocytosis of endogenously expressed TIMP-3: inhibited endocytosis
TIMP-3 binding to LRP1
  TIMP-3 binding to immobilized LRP1: abolished
Human TIMP-3; plates coated with 10 µg/ml compound, one-site specific binding model, mean ± S.E., n = 3
  EC50: 1.9 ± 0.21 nM
Human TIMP-3; solid-phase binding assay, plates coated 10 µg/ml, read-out: KD value for TIMP-3 binding to immobilized compound
  Kd: 1.9 ± 0.2 nM
Human OA chondrocytes
  cell viability (MTS): did not affect
Human OA chondrocytes; listed as Suramin
  cell viability (MTS): without any significant change
LRP1 ectodomain
  shedding of LRP1 ectodomain into the medium: not affected
